Source: patent US8785439B2, “2,5,7-substituted oxazolopyrimidine derivatives” (Sanofi, priority 2010, dated 2014)

target: T1, human Edg-1 receptor (Homo sapiens, UniProt P21453); assay: GTP-γ-S assay using human Edg-1 receptors (SPA, CHO Flp-In cell membrane preparation); format: biochemical; settings: test compound at 10 μM; high control 10 μM S1P regarded as 100% activation; background-corrected; triplicate; read-out: % Activation (Edg-1 receptor activation in percent of the activation by 10 μM S1P)
T1 construct: FLAG (N); expressed in transfected cells; membrane preparation
In short: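 Membranes from CHO Flp-In cells stably overexpressing N-terminally FLAG-tagged human Edg-1 were used in a scintillation-proximity GTP-γ-S binding assay to measure receptor activation by compounds.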

T1 sequence (P21453 whole entry): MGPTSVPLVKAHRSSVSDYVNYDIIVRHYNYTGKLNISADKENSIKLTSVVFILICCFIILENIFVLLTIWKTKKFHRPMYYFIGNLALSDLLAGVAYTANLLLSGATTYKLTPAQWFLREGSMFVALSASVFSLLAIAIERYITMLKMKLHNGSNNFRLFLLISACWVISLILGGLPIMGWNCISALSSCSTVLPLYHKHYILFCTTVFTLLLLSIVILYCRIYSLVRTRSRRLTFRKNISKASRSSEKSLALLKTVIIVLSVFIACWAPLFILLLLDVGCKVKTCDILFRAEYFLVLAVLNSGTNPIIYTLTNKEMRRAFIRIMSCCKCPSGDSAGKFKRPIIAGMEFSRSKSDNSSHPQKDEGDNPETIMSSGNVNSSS

Row | SMILES | activation at 10 µM
1 | CCCOc1nc(Oc2cc(F)ccc2C)nc2oc(-c3cc(F)ccc3Cl)nc12 [Example 79, 2-(2-chloro-5-fluoro-phenyl)-5-(5-fluoro-2-methyl-phenoxy)-7-propoxy-oxazolo[5,4-d]pyrimidine] | 64%
2 | CCCOc1nc(Oc2ccccn2)nc2oc(-c3cccc(C)c3)nc12 [Example 76, 7-propoxy-5-(pyridin-2-yloxy)-2-(3-methyl-phenyl)-oxazolo[5,4-d]pyrimidine] | 81%
3 | CCCOc1nc(Oc2ccc(Cl)c(F)c2)nc2oc(-c3cccc(C)c3)nc12 [Example 74, 5-(4-chloro-3-fluoro-phenoxy)-7-propoxy-2-(3-methyl-phenyl)-oxazolo[5,4-d]pyrimidine] | 69%
4 | CCCOc1nc(Oc2cncc(F)c2)nc2oc(-c3cc(F)ccc3Cl)nc12 [Example 72, 2-(2-chloro-5-fluoro-phenyl)-5-(5-fluoro-pyridin-3-yloxy)-7-propoxy-oxazolo[5,4-d]pyrimidine] | 95%
5 | CCCOc1nc(Oc2ccc(OC(F)(F)F)c(Cl)c2)nc2oc(-c3cccc(C)c3)nc12 [Example 52, 5-(3-chloro-4-trifluoromethoxy-phenoxy)-7-propoxy-2-(3-methyl-phenyl)-oxazolo[5,4-d]pyrimidine] | 51%
6 | CCOc1nc(Oc2ccccc2F)nc2oc(-c3cc(C)c(O)c(C)c3)nc12 [Example 47, 4-[7-ethoxy-5-(2-fluoro-phenoxy)-oxazolo[5,4-d]pyrimidin-2-yl]-2,6-dimethyl-phenol] | 119%
7 | CCCOc1nc(SC2CCS(=O)(=O)C2)nc2oc(-c3cccc(C)c3)nc12 (stereo not drawn) [Example 27, 5-(1,1-dioxo-tetrahydro-1lambda6-thiophen-3-ylsulfanyl)-7-propoxy-2-(3-methyl-phenyl)-oxazolo[5,4-d]pyrimidine] | 93%
8 | CCCOc1nc(NC2CCOCC2)nc2oc(-c3cccc(C)c3)nc12 [Example 3, (7-Propoxy-2-(3-methyl-phenyl)-oxazolo[5,4-d]pyrimidin-5-yl)-(tetrahydro-pyran-4-yl)-amine] | 74%
9 | CCCOc1nc(Oc2ccccc2F)nc2oc(-c3cccc(O)c3)nc12 [Example 42, 3-[5-(2-fluoro-phenoxy)-7-propoxy-oxazolo[5,4-d]pyrimidin-2-yl]-phenol] | 130%
10 | CCCOc1nc(OC2CCCCC2)nc2oc(-c3cccc(C)c3)nc12 [Example 2, 5-Cyclohexyloxy-7-propoxy-2-(3-methyl-phenyl)-oxazolo[5,4-d]pyrimidine] | 90%
11 | CCCOc1nc(Oc2ccccc2F)nc2oc(-c3cc(C)c(OC)c(C)c3)nc12 [Example 5, 5-(2-Fluoro-phenoxy)-2-(4-methoxy-3,5-dimethyl-phenyl)-7-propoxy-oxazolo[5,4-d]pyrimidine] | 111%
12 | CCCOc1nc(Oc2cccc(S(N)(=O)=O)c2)nc2oc(-c3cccc(C)c3)nc12 [Example 20, 3-(7-propoxy-2-(3-methyl-phenyl)-oxazolo[5,4-d]pyrimidin-5-yloxy)-benzenesulfonamide] | 83%
13 | CCCOc1nc(Oc2cccnc2)nc2oc(-c3cccc(O)c3)nc12 [Example 43, 3-[7-propoxy-5-(pyridin-3-yloxy)-oxazolo[5,4-d]pyrimidin-2-yl]-phenol] | 98%
14 | CCCOc1nc(Oc2cccc(SC(F)(F)F)c2)nc2oc(-c3cc(F)ccc3Cl)nc12 [Example 68, 2-(2-chloro-5-fluoro-phenyl)-7-propoxy-5-(3-trifluoromethylsulfanyl-phenoxy)-oxazolo[5,4-d]pyrimidine] | 41%
15 | CCCOc1nc(Oc2cccc(SC(F)(F)F)c2)nc2oc(-c3cccc(F)c3)nc12 [Example 69, 2-(3-fluoro-phenyl)-7-propoxy-5-(3-trifluoromethylsulfanyl-phenoxy)-oxazolo[5,4-d]pyrimidine] | 41%
16 | C=CCCCOc1nc(OCC2CC2)c2nc(-c3cccc(C)c3)oc2n1 [Example 16, 7-cyclopropylmethoxy-5-pent-4-enyloxy-2-(3-methyl-phenyl)-oxazolo[5,4-d]pyrimidine] | 83%
17 | CCOc1nc(Oc2ccccc2F)nc2oc(-c3cc(C)c(OC)c(C)c3)nc12 [Example 46, 7-ethoxy-5-(2-fluoro-phenoxy)-2-(4-methoxy-3,5-dimethyl-phenyl)-oxazolo[5,4-d]pyrimidine] | 102%
18 | Cc1cccc(-c2nc3c(OCC4CC4)nc(OCC4COC(C)(C)O4)nc3o2)c1 (stereo not drawn) [Example 36, 7-cyclopropylmethoxy-5-(2,2-dimethyl-[1,3]dioxolan-4-ylmethoxy)-2-(3-methyl-phenyl)-oxazolo[5,4-d]pyrimidine] | 78%
19 | CCOc1nc(OCC2COC(C)(C)O2)nc2oc(-c3cccc(C)c3)nc12 (stereo not drawn) [Example 37, 5-(2,2-dimethyl-[1,3]dioxolan-4-ylmethoxy)-7-ethoxy-2-(3-methyl-phenyl)-oxazolo[5,4-d]pyrimidine] | 86%
20 | CCCOc1nc(Oc2cccc(OCC)c2)nc2oc(-c3cccc(C)c3)nc12 [Example 93, 5-(3-ethoxy-phenoxy)-7-propoxy-2-(3-methyl-phenyl)-oxazolo[5,4-d]pyrimidine] | 60%
21 | CCCOc1nc(Oc2cccc(C#N)c2)nc2oc(-c3cccc(C)c3)nc12 [Example 87, 3-(7-propoxy-2-(3-methyl-phenyL)-oxazolo[5,4-d]pyrimidin-5-yloxy)-benzonitrile] | 93%
22 | CCCOc1nc(Oc2ccccc2F)nc2oc(-c3cccc(OC)c3)nc12 [Example 40, 5-(2-fluoro-phenoxy)-2-(3-methoxy-phenyl)-7-propoxy-oxazolo[5,4-d]pyrimidine] | 120%
23 | CCCOc1nc(OCC2COC(C)(C)O2)nc2oc(-c3ccc(Cl)c(Cl)c3)nc12 (stereo not drawn) [Example 45, 2-(3,4-dichloro-phenyl)-5-(2,2-dimethyl-[1,3]dioxolan-4-ylmethoxy)-7-propoxy-oxazolo[5,4-d]pyrimidine] | 74%

Now from value to molecule:

Row | activation at 10 µM | SMILES
24 | 126% | CCCOc1ccccc1Oc1nc(OCCC)c2nc(-c3cccc(C)c3)oc2n1 [Example 146, 7-propoxy-5-(2-propoxy-phenoxy)-2-(3-methyl-phenyl)-oxazolo[5,4-d]pyrimidine]
25 | 88% | CCCOc1nc(Oc2ccccc2)nc2oc(-c3ccc(Cl)c(Cl)c3)nc12 [Example 105, 2-(3,4-dichloro-phenyl)-5-phenoxy-7-propoxy-oxazolo[5,4-d]pyrimidine]
26 | 66% | CCCOc1nc(Sc2cc(C)oc2C)nc2oc(-c3cc(F)ccc3Cl)nc12 [Example 151, 2-(2-chloro-5-fluoro-phenyl)-5-(2,5-dimethyl-furan-3-ylsulfanyl)-7-propoxy-oxazolo[5,4-d]pyrimidine]
27 | 1% | CCCOc1nc(Oc2ccc(C)cc2OC)nc2oc(-c3cccc(C)c3)nc12 [Example 135, 5-(2-methoxy-4-methyl-phenoxy)-7-propoxy-2-(3-methyl-phenyl)-oxazolo[5,4-d]pyrimidine]
28 | 50% | CCCOc1nc(Oc2c(C)cc(C)cc2C)nc2oc(-c3cccc(C)c3)nc12 [Example 142, 7-propoxy-2-(3-methyl-phenyl)-5-(2,4,6-trimethyl-phenoxy)-oxazolo[5,4-d]pyrimidine]
29 | 96% | CCCOc1nc(Oc2cc(Cl)ccc2C)nc2oc(-c3cccc(C)c3)nc12 [Example 115, 5-(5-chloro-2-methyl-phenoxy)-7-propoxy-2-(3-methyl-phenyl)-oxazolo[5,4-d]pyrimidine]
30 | 63% | CCCOc1nc(OC2CCOCC2)nc2oc(-c3cc(F)ccc3Cl)nc12 [Example 117, 2-(2-chloro-5-fluoro-phenyl)-7-propoxy-5-(tetrahydro-pyran-4-yloxy)-oxazolo[5,4-d]pyrimidine]
31 | 85% | CCCOc1nc(Oc2ccc(F)c(C(F)(F)F)c2)nc2oc(-c3cccc(C)c3)nc12 [Example 129, 5-(4-fluoro-3-trifluoromethyl-phenoxy)-7-propoxy-2-(3-methyl-phenyl)-oxazolo[5,4-d]pyrimidine]
32 | 75% | CCCOc1nc(Oc2cncc(F)c2)nc2oc(-c3ccc(Cl)c(Cl)c3)nc12 [Example 160, 2-(3,4-dichloro-phenyl)-5-(5-fluoro-pyridin-3-yloxy)-7-propoxy-oxazolo[5,4-d]pyrimidine]
33 | 92% | CCCOc1nc(Sc2ccccc2)nc2oc(-c3cc(F)ccc3Cl)nc12 [Example 150, 2-(2-chloro-5-fluoro-phenyl)-5-phenylsulfanyl-7-propoxy-oxazolo[5,4-d]pyrimidine]
34 | 116% | CCCOc1nc(Oc2ccc(Cl)cc2Cl)nc2oc(-c3cccc(C)c3)nc12 [Example 119, 5-(2,4-dichloro-phenoxy)-7-propoxy-2-(3-methyl-phenyl)-oxazolo[5,4-d]pyrimidine]
35 | 97% | CCCOc1nc(Oc2cc(F)cc(Cl)c2)nc2oc(-c3cccc(C)c3)nc12 [Example 138, 5-(3-chloro-5-fluoro-phenoxy)-7-propoxy-2-(3-methyl-phenyl)-oxazolo[5,4-d]pyrimidine]
36 | 61% | CCCOc1nc(Oc2cccc(C(C)(C)C)c2)nc2oc(-c3cccc(C)c3)nc12 [Example 125, 5-(3-tert-butyl-phenoxy)-7-propoxy-2-(3-methyl-phenyl)-oxazolo[5,4-d]pyrimidine]
37 | 117% | Clc1ccc(-c2nc3c(OCC4CC4)nc(Oc4cccnc4)nc3o2)cc1Cl [Example 106, 7-cyclopropylmethoxy-2-(3,4-dichloro-phenyl)-5-(pyridin-3-yloxy)-oxazolo[5,4-d]pyrimidine]
38 | 121% | CCCOc1nc(Oc2ccccc2CCC)nc2oc(-c3cccc(C)c3)nc12 [Example 126, 7-propoxy-5-(2-propyl-phenoxy)-2-(3-methyl-phenyl)-oxazolo[5,4-d]pyrimidine]
39 | 88% | CCCOc1nc(Oc2ccc(C)cc2F)nc2oc(-c3cccc(C)c3)nc12 [Example 111, 5-(2-fluoro-4-methyl-phenoxy)-7-propoxy-2-(3-methyl-phenyl)-oxazolo[5,4-d]pyrimidine]
